How the values were obtained:
[1] = tested on: mouse sensitized to oxazolone; assay: Mouse oxazolone screen: topical anti-inflammatory activity in the mouse sensitized to oxazolone; format: in vivo; conditions: oxazolone challenge 100 μg/ear, ears weighed 24 hours later
Experimental: Compounds were tested for topical anti-inflammatory activity in a screen using the mouse sensitized to oxazolone, by a method modified from that of Dietrich and Hess [Int. Arch. Allergy, 38, 246 (1970)].
Mice were sensitized with oxazolone (2 mg in 20 μl EtOH) on a shaved area of the abdomen. 5 days later, the animals received 10 μl THF/MeOH (1:1 v/v) on the right ear and the test compound in the same solvent on the left ear. 1 hour later, the animals were challenged with 100 μg oxazolone in 10 μl acetone on each ear. Ear weights were measured 24 hours later. Percentage inhibition of the inflammatory swelling refers to the increase in weight of left ears (oxazolone plus compound in THF/MeOH) compared to untreated negative controls, as a proportion of the increase in weight of right ears (oxazolone plus THF/MeOH) only similar controls.

[2] = tested on: cantharidin mouse ear; assay: Mouse cantharidin screen: topical anti-inflammatory activity, cantharidin mouse ear; format: in vivo; conditions: cantharidin 25 μg/ear, ears weighed after 24 hours
Experimental: Compounds were tested for topical anti-inflammatory activity in a cantharidin mouse ear screen, modified from Swingle, Reiter and Schwartzmiller [Arch. int. Pharmacodyn. 254, 168-176, 1976].
25 μg cantharidin (in 10 μl THF) was applied to both ears. Compound, in the same solvent, was applied at the same time, to the left ear only. Ears were weighed after 24 hours. Percentage inhibition of the acute inflammatory swelling refers to the increase in weight of left ears (cantharidin plus compound) compared to solvent-treated negative controls, as a proportion of the increase in weight of right ears (cantharidin alone) over similar controls.

[3] = dose 200 μg/ear 1 hour before challenge

Cc1cc(NCCO)c2[nH]nc(Br)c2n1 [Compound 1, 3-Bromo-7-(2-hydroxyethylamino)-5-methyl-1H-pyrazolo-[4,3-b]pyridine]
% Inhibition of the inflammatory swelling [1, 3]: 22%

Cc1cc(NCCO)c2[nH]nc(C)c2n1 [Compound 2, 7-(2-Hydroxyethylamino)-3,5-dimethyl-1H-pyrazolo[4,3-b]pyridine]
% Inhibition of the acute inflammatory swelling ([2]; dose 500 μg/ear): 86%
% Inhibition of the inflammatory swelling [1, 3]: 52%

Cc1cc(NCCO)c2[nH]nc(-c3ccccc3)c2n1 [Compound 3, 7-(2-Hydroxyethylamino)-5-methyl-3-phenyl-1H-pyrazolo[4,3-b]pyridine]
% Inhibition of the acute inflammatory swelling ([2]; dose 500 μg/ear): 98%
% Inhibition of the inflammatory swelling ([1]; dose 500 μg/ear 1 hour before challenge): 52%

C=CCNc1cc(C)nc2c(C)n[nH]c12 [Compound 4, 7-Allylamino-3,5-dimethyl-1H-pyrazolo[4,3-b]pyridine]
% Inhibition of the acute inflammatory swelling ([2]; dose 200 μg/ear): 83%

C=CCNc1cc(C)nc2c(-c3ccccc3)n[nH]c12 [Compound 5, 7-Allylamino-5-methyl-3-phenyl-1H-pyrazolo[4,3-b]pyridine]
% Inhibition of the acute inflammatory swelling ([2]; dose 500 μg/ear): 90%

Cc1cc(NCCO)c2[nH]nc(-c3ccc(Cl)cc3)c2n1 [Compound 6, 3-(4-Chlorophenyl)-7-(2-hydroxyethylamino)-5-methyl-1H-pyrazolo[4,3-b]pyridine]
% Inhibition of the acute inflammatory swelling ([2]; dose 200 μg/ear): 68%
% Inhibition of the inflammatory swelling [1, 3]: 31%

Cc1cc(NCC(C)C)c2[nH]nc(-c3ccccc3)c2n1 [Compound 7, 7-Isobutylamino-5-methyl-3-phenyl-1H-pyrazolo[4,3-b]pyridine]
% Inhibition of the acute inflammatory swelling ([2]; dose 500 μg/ear): 39%

Cc1cc(NCCO)c2nn(-c3ccccc3)c(C)c2n1 [Compound 13, 7-(2-Hydroxyethylamino)-3,5-dimethyl-2-phenylpyrazolo[4,3-b]pyridine]
% Inhibition of the acute inflammatory swelling ([2]; dose 200 μg/ear): 43%

Reference: patent US4833136A, “Pharmaceutically useful pyrazolo[4,3-b]pyridines” (Beecham Group p.l.c., priority 1986, dated 1989)
